Test results: BindingDB's records for PubMed 9686407 (Sri International, 1998)

Columns and labels:
[1] = target: T1, 5-hydroxytryptamine receptor 2C (Rattus norvegicus, UniProt P08909)
T1 sequence (P08909 whole entry): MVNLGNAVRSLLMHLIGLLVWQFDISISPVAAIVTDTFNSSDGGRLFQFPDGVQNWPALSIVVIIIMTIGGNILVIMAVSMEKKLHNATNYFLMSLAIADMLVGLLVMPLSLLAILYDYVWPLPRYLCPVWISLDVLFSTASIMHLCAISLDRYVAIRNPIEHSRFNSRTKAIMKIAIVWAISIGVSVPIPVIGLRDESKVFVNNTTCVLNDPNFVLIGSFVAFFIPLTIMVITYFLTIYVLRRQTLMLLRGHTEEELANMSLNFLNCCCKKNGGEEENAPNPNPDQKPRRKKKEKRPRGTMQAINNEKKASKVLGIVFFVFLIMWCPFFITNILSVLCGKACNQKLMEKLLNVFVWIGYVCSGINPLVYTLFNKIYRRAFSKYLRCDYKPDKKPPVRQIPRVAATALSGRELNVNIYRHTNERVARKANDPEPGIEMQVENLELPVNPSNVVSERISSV

[2] = target: 5-hydroxytryptamine receptor 5A (Rattus norvegicus, UniProt P35364)
5-hydroxytryptamine receptor 5A, sequence (P35364 whole entry): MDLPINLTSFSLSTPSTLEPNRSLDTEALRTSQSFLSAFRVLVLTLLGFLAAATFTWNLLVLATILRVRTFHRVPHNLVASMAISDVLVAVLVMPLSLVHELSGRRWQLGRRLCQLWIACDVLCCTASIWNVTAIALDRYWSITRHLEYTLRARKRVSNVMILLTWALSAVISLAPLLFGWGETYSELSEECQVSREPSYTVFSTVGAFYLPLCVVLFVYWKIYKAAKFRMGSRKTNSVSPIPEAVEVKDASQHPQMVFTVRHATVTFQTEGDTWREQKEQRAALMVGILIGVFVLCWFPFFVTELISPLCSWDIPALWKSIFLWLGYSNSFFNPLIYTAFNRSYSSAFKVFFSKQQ

SMILES: NCC(O)c1ccc(O)c(O)c1 (stereo not drawn) [Noradrenaline,(+)]
- Ki [1]: > 10 µM
- Ki [2]: > 10 µM
